Experimental data taken from ChEMBL document CHEMBL3232845 (Bioorg Med Chem Lett, 2014).

Columns and labels:
Parameters in all cases: scale not given: the % may be the effect or the level left
[1] = target: ALK tyrosine kinase receptor (Homo sapiens) (UniProt Q9UM73); assay: Inhibition of human ALK assessed as enzyme activity at 1 uM relative to control
[2] = target: Activin receptor type-1B (Homo sapiens) (UniProt P36896); assay: Inhibition of human ALK4 assessed as enzyme activity at 1 uM relative to control
[3] = target: Tyrosine-protein kinase receptor UFO (Homo sapiens) (UniProt P30530); assay: Inhibition of human Axl assessed as enzyme activity at 1 uM relative to control
[4] = target: Tyrosine-protein kinase Blk (Homo sapiens) (UniProt P51451); assay: Inhibition of human BLK assessed as enzyme activity at 1 uM relative to control
Sequence of Tyrosine-protein kinase Blk (Homo sapiens) (P51451 2-505 limits assumed): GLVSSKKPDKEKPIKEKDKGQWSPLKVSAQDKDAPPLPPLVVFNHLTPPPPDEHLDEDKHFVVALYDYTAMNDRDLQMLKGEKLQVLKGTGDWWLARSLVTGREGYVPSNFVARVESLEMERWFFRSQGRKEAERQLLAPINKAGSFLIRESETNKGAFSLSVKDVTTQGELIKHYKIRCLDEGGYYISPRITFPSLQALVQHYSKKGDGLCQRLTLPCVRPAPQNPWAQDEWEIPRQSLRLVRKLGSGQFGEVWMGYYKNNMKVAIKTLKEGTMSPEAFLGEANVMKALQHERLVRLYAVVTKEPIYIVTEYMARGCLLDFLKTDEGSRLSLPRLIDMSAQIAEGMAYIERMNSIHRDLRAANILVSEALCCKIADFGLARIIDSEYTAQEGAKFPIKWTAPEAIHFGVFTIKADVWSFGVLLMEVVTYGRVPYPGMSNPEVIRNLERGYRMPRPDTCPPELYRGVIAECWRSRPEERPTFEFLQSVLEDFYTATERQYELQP

[5] = target: Tyrosine-protein kinase BTK (Homo sapiens) (UniProt Q06187); assay: Inhibition of human BTK assessed as enzyme activity at 1 uM relative to control
[6] = target: Calcium/calmodulin-dependent protein kinase type II subunit gamma (Homo sapiens) (UniProt Q13555); assay: Inhibition of human CAMK2g assessed as enzyme activity at 1 uM relative to control
[7] = target: Calcium/calmodulin-dependent protein kinase type IV (Homo sapiens) (UniProt Q16566); assay: Inhibition of human CAMK4 assessed as enzyme activity at 1 uM relative to control
[8] = target: Ephrin type-A receptor 1 (Homo sapiens) (UniProt P21709); assay: Inhibition of human EphA1 assessed as enzyme activity at 1 uM relative to control
Sequence of Ephrin type-A receptor 1 (Homo sapiens) (P21709 whole entry): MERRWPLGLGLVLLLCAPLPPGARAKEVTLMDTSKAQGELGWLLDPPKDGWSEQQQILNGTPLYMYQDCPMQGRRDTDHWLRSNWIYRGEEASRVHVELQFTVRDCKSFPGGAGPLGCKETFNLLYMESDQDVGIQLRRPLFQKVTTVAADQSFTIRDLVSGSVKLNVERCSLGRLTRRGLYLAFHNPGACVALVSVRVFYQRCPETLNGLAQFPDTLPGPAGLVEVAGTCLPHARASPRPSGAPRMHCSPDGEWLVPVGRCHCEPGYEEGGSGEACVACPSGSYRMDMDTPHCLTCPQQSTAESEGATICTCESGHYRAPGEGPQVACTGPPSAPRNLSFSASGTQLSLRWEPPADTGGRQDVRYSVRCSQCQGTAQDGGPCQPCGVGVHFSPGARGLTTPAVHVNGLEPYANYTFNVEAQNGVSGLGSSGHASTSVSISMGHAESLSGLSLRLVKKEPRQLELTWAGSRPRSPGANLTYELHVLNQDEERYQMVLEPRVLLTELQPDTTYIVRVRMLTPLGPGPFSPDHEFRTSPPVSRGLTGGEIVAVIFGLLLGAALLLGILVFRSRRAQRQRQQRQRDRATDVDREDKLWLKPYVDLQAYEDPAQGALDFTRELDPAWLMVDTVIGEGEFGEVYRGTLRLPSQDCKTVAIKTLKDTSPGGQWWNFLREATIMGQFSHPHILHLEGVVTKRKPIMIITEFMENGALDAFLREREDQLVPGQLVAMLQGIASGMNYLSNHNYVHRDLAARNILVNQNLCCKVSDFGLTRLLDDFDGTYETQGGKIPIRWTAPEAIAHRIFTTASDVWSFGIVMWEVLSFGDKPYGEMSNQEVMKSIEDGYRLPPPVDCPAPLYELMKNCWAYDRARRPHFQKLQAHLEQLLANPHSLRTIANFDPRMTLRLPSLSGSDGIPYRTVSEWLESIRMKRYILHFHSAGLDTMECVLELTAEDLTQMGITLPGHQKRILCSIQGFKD

[9] = target: Serine/threonine-protein kinase tousled-like 2 (Homo sapiens) (UniProt Q86UE8); assay: Inhibition of human TLK2 assessed as enzyme activity at 1 uM relative to control
[10] = target: BDNF/NT-3 growth factors receptor (Homo sapiens) (UniProt Q16620); assay: Inhibition of human TrkB assessed as enzyme activity at 1 uM relative to control
[11] = target: Tyrosine-protein kinase TXK (Homo sapiens) (UniProt P42681); assay: Inhibition of human Txk assessed as enzyme activity at 1 uM relative to control
Sequence of Tyrosine-protein kinase TXK (Homo sapiens) (P42681 whole entry): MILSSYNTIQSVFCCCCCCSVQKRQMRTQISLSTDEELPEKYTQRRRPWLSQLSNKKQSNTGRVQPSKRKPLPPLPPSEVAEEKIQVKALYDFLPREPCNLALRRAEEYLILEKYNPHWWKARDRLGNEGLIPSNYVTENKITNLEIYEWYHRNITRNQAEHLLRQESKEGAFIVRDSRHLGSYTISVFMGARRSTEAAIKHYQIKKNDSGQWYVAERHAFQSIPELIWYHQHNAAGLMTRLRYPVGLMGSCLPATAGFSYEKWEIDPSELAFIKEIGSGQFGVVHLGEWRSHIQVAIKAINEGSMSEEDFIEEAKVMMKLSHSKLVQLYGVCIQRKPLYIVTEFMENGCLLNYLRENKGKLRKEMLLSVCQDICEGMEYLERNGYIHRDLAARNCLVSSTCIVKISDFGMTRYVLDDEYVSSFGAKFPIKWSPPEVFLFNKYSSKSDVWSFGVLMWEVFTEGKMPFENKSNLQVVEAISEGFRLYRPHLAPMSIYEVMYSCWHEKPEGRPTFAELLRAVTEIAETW

[12] = target: Mitogen-activated protein kinase 13 (Homo sapiens) (UniProt O15264); assay: Inhibition of human p38delta assessed as enzyme activity at 1 uM relative to control
[13] = target: Serine/threonine-protein kinase Nek11 (Homo sapiens) (UniProt Q8NG66); assay: Inhibition of human NEK11 assessed as enzyme activity at 1 uM relative to control
[14] = target: Serine/threonine-protein kinase Nek2 (Homo sapiens) (UniProt P51955); assay: Inhibition of human NEK2 assessed as enzyme activity at 1 uM relative to control
[15] = target: Serine/threonine-protein kinase Nek3 (Homo sapiens) (UniProt P51956); assay: Inhibition of human NEK3 assessed as enzyme activity at 1 uM relative to control
[16] = target: Serine/threonine-protein kinase Nek7 (Homo sapiens) (UniProt Q8TDX7); assay: Inhibition of human NEK7 assessed as enzyme activity at 1 uM relative to control
Sequence of Serine/threonine-protein kinase Nek7 (Homo sapiens) (Q8TDX7 whole entry, looked up): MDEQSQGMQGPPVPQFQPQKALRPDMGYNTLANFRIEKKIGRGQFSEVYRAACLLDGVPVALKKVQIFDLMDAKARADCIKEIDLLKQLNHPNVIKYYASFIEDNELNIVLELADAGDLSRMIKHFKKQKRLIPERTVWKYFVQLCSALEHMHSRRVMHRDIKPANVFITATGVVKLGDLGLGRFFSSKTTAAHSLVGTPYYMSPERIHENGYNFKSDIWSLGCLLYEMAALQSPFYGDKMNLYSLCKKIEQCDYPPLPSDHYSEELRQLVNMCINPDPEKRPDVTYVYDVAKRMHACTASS

[17] = target: Serine/threonine-protein kinase PAK 5 (Homo sapiens) (UniProt Q9P286); assay: Inhibition of human PAK5 assessed as enzyme activity at 1 uM relative to control
[18] = target: Platelet-derived growth factor receptor beta (Homo sapiens) (UniProt P09619); assay: Inhibition of human PDGFRbeta assessed as enzyme activity at 1 uM relative to control
[19] = target: 3-phosphoinositide-dependent protein kinase 1 (Homo sapiens) (UniProt O15530); assay: Inhibition of human PDK1 assessed as enzyme activity at 1 uM relative to control
[20] = target: Protein kinase C beta type (Homo sapiens) (UniProt P05771); assay: Inhibition of human PKCbeta1 assessed as enzyme activity at 1 uM relative to control
Sequence of Protein kinase C beta type (Homo sapiens) (P05771 2-671 limits assumed): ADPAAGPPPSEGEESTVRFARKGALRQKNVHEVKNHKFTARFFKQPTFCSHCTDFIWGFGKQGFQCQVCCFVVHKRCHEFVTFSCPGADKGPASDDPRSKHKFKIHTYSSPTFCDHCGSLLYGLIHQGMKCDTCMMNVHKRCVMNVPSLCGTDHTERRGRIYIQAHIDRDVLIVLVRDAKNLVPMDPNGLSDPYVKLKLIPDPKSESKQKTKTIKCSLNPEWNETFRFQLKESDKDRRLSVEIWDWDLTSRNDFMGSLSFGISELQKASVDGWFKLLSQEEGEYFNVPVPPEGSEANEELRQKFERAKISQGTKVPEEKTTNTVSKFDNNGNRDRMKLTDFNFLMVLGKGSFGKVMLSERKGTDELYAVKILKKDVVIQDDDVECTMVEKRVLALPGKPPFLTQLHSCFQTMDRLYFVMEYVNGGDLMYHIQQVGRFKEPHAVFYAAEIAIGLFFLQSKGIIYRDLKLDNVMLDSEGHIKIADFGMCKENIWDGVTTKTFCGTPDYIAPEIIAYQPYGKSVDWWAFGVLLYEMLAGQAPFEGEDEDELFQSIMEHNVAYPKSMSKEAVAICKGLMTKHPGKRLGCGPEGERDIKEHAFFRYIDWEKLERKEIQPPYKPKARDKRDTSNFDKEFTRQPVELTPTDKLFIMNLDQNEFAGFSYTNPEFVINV

[21] = target: Serine/threonine-protein kinase pim-2 (Homo sapiens) (UniProt Q9P1W9); assay: Inhibition of human Pim-2 assessed as enzyme activity at 1 uM relative to control
[22] = target: Serine/threonine-protein kinase pim-3 (Homo sapiens) (UniProt Q86V86); assay: Inhibition of human Pim-3 assessed as enzyme activity at 1 uM relative to control
[23] = target: Macrophage-stimulating protein receptor (Homo sapiens) (UniProt Q04912); assay: Inhibition of human Ron assessed as enzyme activity at 1 uM relative to control
[24] = target: Ribosomal protein S6 kinase alpha-1 (Homo sapiens) (UniProt Q15418); assay: Inhibition of human Rsk1 assessed as enzyme activity at 1 uM relative to control
[25] = target: Serine/threonine-protein kinase 33 (Homo sapiens) (UniProt Q9BYT3); assay: Inhibition of human STK33 assessed as enzyme activity at 1 uM relative to control
[26] = target: Ephrin type-B receptor 4 (Homo sapiens) (UniProt P54760); assay: Inhibition of human EphB4 assessed as enzyme activity at 1 uM relative to control
[27] = target: Vascular endothelial growth factor receptor 3 (Homo sapiens) (UniProt P35916); assay: Inhibition of human Flt4 assessed as enzyme activity at 1 uM relative to control
Sequence of Vascular endothelial growth factor receptor 3 (Homo sapiens) (P35916 whole entry): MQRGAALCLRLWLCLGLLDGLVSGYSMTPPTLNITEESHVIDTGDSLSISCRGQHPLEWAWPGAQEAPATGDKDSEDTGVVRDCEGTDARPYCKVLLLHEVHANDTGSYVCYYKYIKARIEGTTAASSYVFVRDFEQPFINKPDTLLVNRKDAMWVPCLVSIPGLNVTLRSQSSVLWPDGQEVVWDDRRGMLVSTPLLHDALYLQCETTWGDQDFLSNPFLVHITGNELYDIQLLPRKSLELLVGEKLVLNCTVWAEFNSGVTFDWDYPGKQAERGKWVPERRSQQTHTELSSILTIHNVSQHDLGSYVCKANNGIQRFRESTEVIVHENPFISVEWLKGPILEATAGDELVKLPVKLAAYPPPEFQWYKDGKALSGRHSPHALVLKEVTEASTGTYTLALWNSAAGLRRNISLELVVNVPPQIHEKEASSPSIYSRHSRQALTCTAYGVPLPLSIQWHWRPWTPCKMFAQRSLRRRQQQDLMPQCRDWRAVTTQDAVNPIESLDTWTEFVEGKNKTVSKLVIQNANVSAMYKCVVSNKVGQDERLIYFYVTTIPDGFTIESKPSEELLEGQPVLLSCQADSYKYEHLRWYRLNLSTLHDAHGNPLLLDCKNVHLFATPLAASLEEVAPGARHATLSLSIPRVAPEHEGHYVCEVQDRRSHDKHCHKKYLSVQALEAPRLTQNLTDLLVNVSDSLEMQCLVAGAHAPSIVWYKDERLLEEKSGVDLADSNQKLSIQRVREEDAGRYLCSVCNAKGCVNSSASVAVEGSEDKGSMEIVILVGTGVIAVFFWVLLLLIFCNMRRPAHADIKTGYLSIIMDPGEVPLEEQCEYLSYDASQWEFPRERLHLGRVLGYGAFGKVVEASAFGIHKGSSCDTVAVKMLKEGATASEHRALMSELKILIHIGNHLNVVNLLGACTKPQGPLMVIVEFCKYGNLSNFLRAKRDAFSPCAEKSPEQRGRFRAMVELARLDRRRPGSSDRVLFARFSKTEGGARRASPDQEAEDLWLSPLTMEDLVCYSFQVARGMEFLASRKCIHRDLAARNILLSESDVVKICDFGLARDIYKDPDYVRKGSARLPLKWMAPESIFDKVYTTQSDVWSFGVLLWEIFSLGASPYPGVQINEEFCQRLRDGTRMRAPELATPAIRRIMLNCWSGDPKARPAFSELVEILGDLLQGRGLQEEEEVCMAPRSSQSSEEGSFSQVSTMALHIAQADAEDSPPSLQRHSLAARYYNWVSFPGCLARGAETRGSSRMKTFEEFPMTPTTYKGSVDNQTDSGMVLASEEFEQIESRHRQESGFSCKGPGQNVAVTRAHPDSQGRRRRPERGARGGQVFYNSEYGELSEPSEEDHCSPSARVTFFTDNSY

[28] = target: Rhodopsin kinase GRK7 (Homo sapiens) (UniProt Q8WTQ7); assay: Inhibition of human GRK7 assessed as enzyme activity at 1 uM relative to control
[29] = target: Tyrosine-protein kinase HCK (Homo sapiens) (UniProt P08631); assay: Inhibition of human Hck assessed as enzyme activity at 1 uM relative to control
[30] = target: Insulin-like growth factor 1 receptor (Homo sapiens) (UniProt P08069); assay: Inhibition of human IGF-1R assessed as enzyme activity at 1 uM relative to control
[31] = target: Insulin receptor (Homo sapiens) (UniProt P06213); assay: Inhibition of human activated IR assessed as enzyme activity at 1 uM relative to control
[32] = target: Tyrosine-protein kinase ITK/TSK (Homo sapiens) (UniProt Q08881); assay: Inhibition of human ITK assessed as enzyme activity at 1 uM relative to control
[33] = target: Serine/threonine-protein kinase STK11 (Homo sapiens) (UniProt Q15831); assay: Inhibition of human LKB1 assessed as enzyme activity at 1 uM relative to control
[34] = target: MAP kinase-activated protein kinase 3 (Homo sapiens) (UniProt Q16644); assay: Inhibition of human MAPKAP-K3 assessed as enzyme activity at 1 uM relative to control
[35] = target: Dual specificity mitogen-activated protein kinase kinase 6 (Homo sapiens) (UniProt P52564); assay: Inhibition of human MKK6 assessed as enzyme activity at 1 uM relative to control
Sequence of Dual specificity mitogen-activated protein kinase kinase 6 (Homo sapiens) (P52564 whole entry): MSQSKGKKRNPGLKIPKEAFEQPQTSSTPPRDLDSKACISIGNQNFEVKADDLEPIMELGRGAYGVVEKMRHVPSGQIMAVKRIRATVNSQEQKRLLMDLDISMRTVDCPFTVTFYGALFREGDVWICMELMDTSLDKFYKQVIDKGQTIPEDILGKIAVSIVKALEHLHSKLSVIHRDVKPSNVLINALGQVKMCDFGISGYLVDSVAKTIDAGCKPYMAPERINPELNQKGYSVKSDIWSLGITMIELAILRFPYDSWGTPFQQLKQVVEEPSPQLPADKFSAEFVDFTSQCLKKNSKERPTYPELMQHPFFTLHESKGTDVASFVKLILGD

[36] = target: MAP kinase-interacting serine/threonine-protein kinase 2 (Homo sapiens) (UniProt Q9HBH9); assay: Inhibition of human MKNK2 assessed as enzyme activity at 1 uM relative to control
[37] = target: Serine/threonine-protein kinase haspin (Homo sapiens) (UniProt Q8TF76); assay: Inhibition of human Haspin assessed as enzyme activity at 1 uM relative to control
[38] = target: Dual specificity tyrosine-phosphorylation-regulated kinase 2 (Homo sapiens) (UniProt Q92630); assay: Inhibition of human DYRK2 assessed as enzyme activity at 1 uM relative to control

Activity [1]: 104%
Activity [2]: 109%
Activity [3]: 93%
Activity [4]: 102%
Activity [5]: 102%
Activity [6]: 104%
Activity [7]: 98%
Activity [8]: 101%
Activity [9]: 104%
Activity [10]: 86%
Activity [11]: 104%
Activity [12]: 96%
Activity [13]: 93.5%
Activity [14]: 116%
Activity [15]: 112%
Activity [16]: 110%
Activity [17]: 99.5%
Activity [18]: 114%
Activity [19]: 105%
Activity [20]: 87%
Activity [21]: 108%
Activity [22]: 97%
Activity [23]: 110%
Activity [24]: 145%
Activity [25]: 91%
Activity [26]: 104%
Activity [27]: 79.5%
Activity [28]: 103%
Activity [29]: 94.5%
Activity [30]: 108%
Activity [31]: 95%
Activity [32]: 102%
Activity [33]: 90.5%
Activity [34]: 121%
Activity [35]: 118%
Activity [36]: 106%
Activity [37]: 99.5%
Activity [38]: 99%
Structure (SMILES): CCCS(=O)(=O)Nc1cccc(Nc2ccc3ncn(C)c(=O)c3c2)c1C#N
